Measurements published in publication PMC11062899, “De novo development of small cyclic peptides that are orally bioavailable” (Nature Chemical Biology, 2023).
Values joined by “and” are separate entries in the source; they are usually repeats but may differ in a detail not shown here. Equal values may be shown once.

Experiments:
[1] = target: human α-thrombin (Homo sapiens, UniProt P00734); assay: Protease inhibition, Ki for human α-thrombin (fluorogenic substrate Z-Gly-Gly-Arg-AMC); format: biochemical; details: replicates R1-R3
In short: (§1)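 Ki derived through Cheng–Prusoff from IC50s (four-parameter logistic fit) against activity of peptide-free controls. Product fluorescence was read every 3 min over 30 min at 25 °C, substrate Z-Gly-Gly-Arg-AMC at 50 μM. Enzyme was 2 nM human or 3 nM rat α-thrombin, pH 7.4 buffer.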

[2] = target: T1, rat α-thrombin (Rattus norvegicus, UniProt P18292); assay: Protease inhibition, Ki for rat α-thrombin (fluorogenic substrate Z-Gly-Gly-Arg-AMC); format: biochemical; details: replicates R1-R3
T1 construct: rat α-thrombin (Molecular Innovations) were used at final concentrations of 2 nM and 3 nM; purchased Molecular Innovations
In short: as §1

[3] = target: T2, porcine pepsin (Sus scrofa, UniProt P00791); assay: Peptide stability in simulated gastric fluid (SGF); format: in vitro ADME
T2 construct: 0.32 g of porcine pepsin (Sigma-Aldrich, P7125) was dissolved under gentle agitation; purchased Sigma-Aldrich P7125
Method: (§2) Simulated gastric and intestinal fluids were prepared according to the States Pharmacopeia specifications (Test Solutions, United States Pharmacopeia 35, NF 30, 2012). SGF: 0.2 g of sodium chloride was dissolved in 50 ml of water, and the pH was adjusted to 1.2 by addition of 0.7 ml of 10 M hydrochloric acid. Then, 0.32 g of porcine pepsin (Sigma-Aldrich, P7125) was dissolved under gentle agitation, and the volume was filled up to 100 ml with Milli-Q water. SIF: 0.68 g of monobasic potassium phosphate was dissolved in 25 ml of Milli-Q water, and the pH was adjusted to 6.8 by adding 7.7 ml of a 0.2 M sodium hydroxide solution. Next, 1 g of porcine pancreatin (Sigma-Aldrich, P3292) was added under gentle agitation, and the volume was adjusted to 100 ml with Milli-Q water to afford a fine suspension. To test the stability in simulated gastrointestinal fluids, 396 μl of SGF or SIF was pre-heated at 37 °C for 10 min, and 4 μl of a 1 mM peptide solution in DMSO was added. […] Supernatant was analyzed by LC–MS to measure the peptide concentrations at the different timepoints. Residual peptide was calculated by normalizing the concentrations measured at T1 to T0.

[4] = Peptide stability in simulated intestinal fluid (SIF); format: in vitro ADME, porcine; details: simulated gi fluid; 8 h, 37 °C, pH 6.8; read-out: Proteolytic stability: SIF (8 h) % remaining
Method: as §2

[5] = test system: porcine pancreatin; assay: as above; format: in vitro ADME; details: after 8 h vs 0 h (TIC)
Method: as §2

[6] = Passive artificial membrane permeability (PAMPA)
[7] = Metabolic stability in rat liver microsomes (RLMs); details: rat, microsomes
Method: Metabolic stability was measured by incubating the peptides (10 μM) with RLMs. Peptides to test were dissolved in DMSO (4 mM), and 1 μl of the resulting solution was added to 365 μl of 0.1 M sodium phosphate buffer (pH 7.4). The solution was pre-warmed at 37 °C for 5 min before starting the reaction by addition of 24 μl of NADPH cofactor solution (22 mM) and 11 μl of RLMs (20 mg ml^−1 protein concentration; Thermo Fisher Scientific, RTMCPL). […] Samples were vortexed, sonicated for 5 min and centrifuged at 16,000g for 10 min. Supernatant was analyzed by LC–MS to quantify the disappearance of the compound and formation of degradation products.

[8] = peptide 1.33E+02 uM, slope of proteolytic substrate cleavage over time

T2 sequence (P00791 60-385): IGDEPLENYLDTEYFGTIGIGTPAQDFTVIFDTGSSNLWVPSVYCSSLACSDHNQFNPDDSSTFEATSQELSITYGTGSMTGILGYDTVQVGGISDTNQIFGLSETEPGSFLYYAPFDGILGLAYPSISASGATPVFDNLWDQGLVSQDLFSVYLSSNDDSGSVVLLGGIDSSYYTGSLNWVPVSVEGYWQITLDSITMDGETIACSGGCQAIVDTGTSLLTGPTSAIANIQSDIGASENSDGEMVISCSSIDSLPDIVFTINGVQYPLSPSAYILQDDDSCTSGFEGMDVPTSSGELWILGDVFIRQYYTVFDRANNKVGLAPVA

## O=C1CCSCc2cccc(n2)CSCCNC(=O)[C@H](CO)NC(=O)[C@@H](NC(=O)c2ccc(Cl)s2)CN1 [compound 17]
[1]; peptide 1.02E-03 uM
  Human alpha thrombin inhibition, slope normalized to DMSO: 90.3 and 94.2 and 97.4
[1]; peptide 1.04E+00 uM
  Human alpha thrombin inhibition, slope normalized to DMSO: 86.6 and 86.7 and 88.9
[1]; peptide 1.27E-04 uM
  Human alpha thrombin inhibition, slope normalized to DMSO: 98.6 and 95.2 and 97.6
[1]; peptide 1.30E-01 uM
  Human alpha thrombin inhibition, slope normalized to DMSO: 95.9 and 91.0 and 95.3
[1]; [8]
  Human alpha thrombin inhibition, slope normalized to DMSO: 25.3 and 29.1 and 30.1
[1]; peptide 1.63E-02 uM
  Human alpha thrombin inhibition, slope normalized to DMSO: 109.1 and 94.1 and 96.6
[1]; peptide 1.67E+01 uM
  Human alpha thrombin inhibition, slope normalized to DMSO: 56.0 and 55.9 and 56.8
[1]; peptide 2.03E-03 uM
  Human alpha thrombin inhibition, slope normalized to DMSO: 98.0 and 93.9 and 96.6
[1]; peptide 2.08E+00 uM
  Human alpha thrombin inhibition, slope normalized to DMSO: 93.5 and 81.6 and 87.4
[1]; peptide 2.54E-04 uM
  Human alpha thrombin inhibition, slope normalized to DMSO: 96.9 and 93.2 and 95.5
[1]; peptide 2.60E-01 uM
  Human alpha thrombin inhibition, slope normalized to DMSO: 93.6 and 91.3 and 95.4
[1]; peptide 3.18E-05 uM
  Human alpha thrombin inhibition, slope normalized to DMSO: 97.0 and 94.8 and 95.7
[1]; peptide 3.26E-02 uM
  Human alpha thrombin inhibition, slope normalized to DMSO: 97.9 and 92.8 and 96.6
[1]; peptide 3.33E+01 uM
  Human alpha thrombin inhibition, slope normalized to DMSO: 44.0 and 43.7 and 42.6
[1]; peptide 4.07E-03 uM
  Human alpha thrombin inhibition, slope normalized to DMSO: 98.5 and 94.3 and 98.3
[1]; peptide 4.17E+00 uM
  Human alpha thrombin inhibition, slope normalized to DMSO: 81.7 and 78.5 and 82.6
[1]; peptide 5.09E-04 uM
  Human alpha thrombin inhibition, slope normalized to DMSO: 98.7 and 85.0 and 98.3
[1]; peptide 5.21E-01 uM
  Human alpha thrombin inhibition, slope normalized to DMSO: 102.0 and 91.0 and 92.1
[1]; peptide 6.36E-05 uM
  Human alpha thrombin inhibition, slope normalized to DMSO: 94.5 and 96.0 and 100.7
[1]; peptide 6.51E-02 uM
  Human alpha thrombin inhibition, slope normalized to DMSO: 96.7 and 92.1 and 95.5
[1]; peptide 6.67E+01 uM
  Human alpha thrombin inhibition, slope normalized to DMSO: 31.6 and 30.0 and 31.3
[1]; peptide 8.14E-03 uM
  Human alpha thrombin inhibition, slope normalized to DMSO: 98.1 and 93.7 and 96.2
[1]; peptide 8.33E+00 uM
  Human alpha thrombin inhibition, slope normalized to DMSO: 74.6 and 70.2 and 71.4
[2]; [8]
  Rat alpha thrombin inhibition, slope normalized to DMSO: 11.3 and 13.8 and 8.3
[2]; peptide 1.67E+01 uM
  Rat alpha thrombin inhibition, slope normalized to DMSO: 29.0 and 30.7 and 41.4
[2]; peptide 2.08E+00 uM
  Rat alpha thrombin inhibition, slope normalized to DMSO: 79.8 and 81.7 and 85.5
[2]; peptide 3.33E+01 uM
  Rat alpha thrombin inhibition, slope normalized to DMSO: 17.9 and 19.2 and 22.6
[2]; peptide 4.17E+00 uM
  Rat alpha thrombin inhibition, slope normalized to DMSO: 59.7 and 62.6 and 71.9
[2]; peptide 6.67E+01 uM
  Rat alpha thrombin inhibition, slope normalized to DMSO: 10.8 and 11.8 and 26.2
[2]; peptide 8.33E+00 uM
  Rat alpha thrombin inhibition, slope normalized to DMSO: 44.9 and 46.7 and 59.3
[3]; after 8 h vs 0 h (TIC), average of R1-R3
  SGF stability, Residual peptide Average: 97.83
[3]; after 8 h vs 0 h (TIC), single replicates R1-R3
  SGF stability, Residual peptide: 97.70 and 100.05 and 95.74
[3]; simulated gi fluid, 8 h, 37 °C, pH 1.2, read-out: Proteolytic stability: SGF (8 h) % remaining
  remaining at 8 h: 98 ± 2%
[4]
  remaining at 8 h: 92 ± 9%
[5]; average of R1-R3
  SIF stability, Residual peptide Average: 91.77
[5]; single replicates R1-R3
  SIF stability, Residual peptide: 101.93 and 87.06 and 86.31
[6]; 50 μM, 12–18 h, acceptor concentration relative to equilibrium
  PAMPA permeability: % permeability: 0.86 ± 0.09%
[6]; PAMPA, pH 7.4
  Papp at 50 μM: 0.0575 ×10⁻⁶ cm/s
[6]; PAMPA, average of R1-R3
  Permeability% Average: 0.9%
[6]; PAMPA, replicate R1, TIC of top well sample relative to sample at theoretical equilibrium
  Permeability% R1: 0.87%
[6]; PAMPA, replicate R3, TIC of top well sample relative to sample at theoretical equilibrium
  Permeability% R3: 0.95%
[7]; CL (ul/min/mg protein) R1, RLM CL, replicate R1
  microsomal CLint: 149 µL/min/mg
[7]; CL (ul/min/mg protein) R2, RLM CL, replicate R2
  microsomal CLint: 98.2 µL/min/mg
[7]; CL (ul/min/mg protein) R3, RLM CL, replicate R3
  microsomal CLint: 109 µL/min/mg
[7]; Half Life (min) R1, RLM metabolic stability, replicate R1, 0-60 min
  half-life: 9.3 min
[7]; Half Life (min) R2, RLM metabolic stability, replicate R2, 0-60 min
  half-life: 14.1 min
[7]; Half Life (min) R3, RLM metabolic stability, replicate R3, 0-60 min
  half-life: 12.7 min
[7]; Metabolic stability: Half life T1/2 (min), RLMs, mean and SD, three measurements
  half-life: 12.1 ± 2 min
[7]; Metabolic stability: RLM CL (ul/min/mg), RLMs, mean and SD, three measurements
  microsomal CLint: 119 ± 22 µL/min/mg
